According to patent US6998479B1, “Derivatives of cyclodextrins” (priority 1998, dated 2006):

Legend:
[1] = Reaction of aminooxy-CD with 6-mercaptopurine riboside followed by UV spectra; details: 1 mM 6-mercaptopurine riboside, 0.1 M compound, 20° C., pH 7.00, 1 mm path
Procedure: FIG. 2a. Time course of the UV spectra (optical path length 1 mm) of a reaction mixture containing 1 mM 6-mercaptopurineriboside with 100 mM 4-aminooxy-2-butenyl-beta-cyclodextrin (see Example I.2). Incubation time (hours) is indicated.
FIG. 2b. Time course of the UV spectra (optical path length b 1 mm) of a reaction mixture containing 1 mM 6-mercaptopurineriboside with 100 mM 1-aminooxybutane at pH 7.00. Incubation time (hours) is indicated.
A 1 mM solution of 6-mercaptopurine riboside (Sigma Chem. Co., USA) was incubated at 20° C. within 0.1 M of 4-aminooxy-2-butenyl-β-CD (I).

[2] = Reaction of aminooxy-CD with 4-thiouracil followed by UV spectra; details: 1 mM 4-thiouracil, 0.1 M compound, 20° C., neutral pH (7.0), 1 mm path
Procedure: FIG. 1a. Time course of the UV spectra (optical path length 1 mm) of a reaction mixture containing 1 mM 4-thiouracil in 100 mM 4-aminooxy-2-butenyl-beta-cyclodextrin (I; see Example I.2) at pH 7.0. Incubation at 20° C. is indicated as hours.
FIG. 1b. Time course of the UV spectra (optical path length 1 mm) of a reaction mixture containing 1 mM 4-thiouracil and 100 mM 1-aminooxybutane at 20° C. at pH 7.00. Incubation time (hours) is indicated.
A 1 mM solution of 4-thiouracil (Lacheama, Brno, Czechoslovakia) was incubated at 20° C. within a 0.1 M solution of 4-aminooxy-2-butenyl-β-CD (I) at neutral pH. The UV-spectra were recorded at certain time intervals using cuvettes of 1 mm optical path length (FIG. 1a). This reaction was compared with the reaction of 4-thiouracil with 1-aminooxybutane under the same reaction conditions (FIG. 1b).

4-aminooxy-2-butenyl-beta-cyclodextrin
reaction rate with 6-mercaptopurine riboside compared with 1-aminooxybutane [1]: drastically higher reaction rates | velocity of reaction with 4-thiouracil compared with 1-aminooxybutane [2]: significantly higher velocity of reaction
